Measurements taken from PMC6225302, “Depsidone Derivatives and a Cyclopeptide Produced by Marine Fungus Aspergillus unguis under Chemical Induction and by Its Plasma Induced Mutant” (Molecules : A Journal of Synthetic Chemistry and Natural …, 2018).
Values after ≈ are worked out from the molar mass of the structure shown. Read-outs that look alike come from different tables or passages of the source. Where a SMILES comes first, the peptide text is derived from it. [ ]: non-standard residue; d: D form. GABA = NCCCC(=O)O

Tests used:
[1] = test system: Candida albicans (ATCC 10231); assay: Antimicrobial paper disc diffusion method; format: cell-based; settings: C. albicans, 10 μg per disc, paper disc diameter 6.0 mm, mean ± SD of three replicates; for zone of inhibition at 10 µg/disc: Candida albicans, ATCC10231
Procedure: (§1) Preliminary antimicrobial tests for compounds 1‒10 were carried out against pathogenetic strains, including Pseudomonas aeruginosa (ATCC 9027), methicillin-resistant Staphylococcus aureus (A7983, clinical isolate donated by Zhijun Yu in Dalian Friendship Hospital, Dalian, China), Vibrio parahemolyticus (ZouB, aquatic pathogen donated by Chongqing Wen in College of Fishery, Guangdong Ocean University, Zhanjiang, China), and Candida albicans (ATCC 10231) using the disc diffusion method. Muller Hinton agar (MHA) and Sabouraud agar (SA) were used for antibacterial and antifungal tests, respectively. For each sample, 10 μg was added onto paper disc (diameter of 6 mm) for tests. The minimum inhibition concentrations (MICs) of the compounds were tested using microdilution methods. Ampicillin and ketoconazole were taken as positive controls for antibacterial and antifungal tests, respectively. Solvents (MeOH and DMSO) were used as blank controls.

[2] = test system: Pseudomonas aeruginosa (ATCC 9027); assay: Antimicrobial paper disc diffusion method; format: cell-based; settings: P. aeruginosa, 10 μg per disc, paper disc diameter 6.0 mm, mean ± SD of three replicates; for zone of inhibition at 10 µg/disc: Pseudomonas aeruginosa, ATCC9027
Procedure: as §1

[3] = test system: Vibrio parahemolyticus (ZouB); assay: Antimicrobial paper disc diffusion method; format: cell-based; settings: V. parahemolyticus, incomplete inhibition, 10 μg per disc, paper disc diameter 6.0 mm, mean ± SD of three replicates; for zone of inhibition at 10 µg/disc: Vibrio
Procedure: as §1

[4] = test system: methicillin-resistant Staphylococcus aureus (A7983, clinical isolate); assay: Antimicrobial paper disc diffusion method; format: cell-based; settings: MRSA; for zone of inhibition at 10 µg/disc: Staphylococcus aureus; for Zone of Inhibition: 10 μg per disc, paper disc diameter 6.0 mm, mean ± SD of three replicates
Procedure: as §1

[5] = test system: Candida albicans (ATCC 10231); assay: Antimicrobial microdilution method (MIC); format: cell-based; settings: ATCC10231, C. albicans
Procedure: as §1

[6] = test system: Pseudomonas aeruginosa (ATCC 9027); assay: Antimicrobial microdilution method (MIC); format: cell-based; settings: ATCC9027, P. aeruginosa
Procedure: as §1

[7] = test system: methicillin-resistant Staphylococcus aureus (A7983, clinical isolate); assay: Antimicrobial microdilution method (MIC); format: cell-based; settings: MRSA
Procedure: as §1

[8] = test system: Vibrio parahemolyticus (ZouB); assay: microbe, parasite or virus in culture; format: cell-based
Procedure: as §1

[9] = molecular target: T1, Acetylcholinesterase (AChE, from electric eels) (Electrophorus electricus, UniProt O42275); assay: AChE inhibition assay (modified Ellman's method); format: biochemical; settings: AChE Inhibitory Activity (IC50), 0.2 U/mL, 37 °C
T1 construct: purchased Sigma-Aldrich
Procedure: Acetylcholinesterase (AChE, from electric eels), acetythiocholine iodide (ATCh), 5,5-dithiobis-(2-nitrobenzoic acid) (DTNB), and bovine serum albumin (BSA, A1933) were purchased from Sigma-Aldrich. 100 mM PBS (pH = 7.4) was prepared with K2HPO4 and KH2PO4. In vitro AChE inhibitory activity was measured in 96-well plates using modified Ellman’s methods. […] Each well contained 1 μL of prepared sample, 49 μL of PBS, 10 μL of enzyme with a final concentration of 0.2 U/mL in BSA ([…] in PBS), and 20 μL of DTNB (5 mM in PBS). Then, the plates were preincubated at 37 °C for 10 min. Afterwards, 20 μL of ATCh (10 mM in PBS) was added into the well. After incubation at 37 °C for 20 min, the 96-well plates were read at 405 nm on the microplate reader, and the inhibition ratios to AChE were calculated using the following equation, where Asample blank stands for the absorbance of a well without enzyme, Asample stands for the absorbance of the treatment, Acontorl stands for the absorbance of the well without the sample, and Ablank stands for the absorbance of the well without the sample and enzyme. Donepezil was taken as a positive control. Inhibition of AChE (%)=[(Acontrol−Ablank)−(Asample−Asample blank)]/(Acontrol−Ablank)×100%
The inhibition rates and concentration logarithm (lnC) values were imported into the Origin 8.0 software (OriginLab Co., Ltd., Northampton, MA, USA). The cubic polynomial regression equation was used to calculate ln(IC50). Then, IC50 was calculated using Microsoft Excel.

[10] = DPPH free radical scavenging assay; settings: 0.16 mM DPPH, 30 min in darkness at room temperature
Procedure: The free radical scavenging potentials of compounds 1‒10 were evaluated in 96-well plates using the DPPH free radical scavenging assay described by Sharma and Bhat. A total of 100 μL of the reaction mixture was composed of 50 μL of 0.16 mM DPPH (Sigma-Aldrich, St. Louis, MO, USA) in methanol and 50 μL of the test compound (in DMSO) with different concentrations (Asample). The reaction mixture was incubated for 30 min in darkness at room temperature. Meanwhile, 50 μL of 0.16 mM DPPH with 50 μL of DMSO was used as control (Acontrol), 50 μL of methanol and 50 μL of different concentrations of the test compound in DMSO were used as the sample blanks (Asample blank), 50 μL methanol with 50 μL DMSO was used as the blank (Ablank), while vitamin C was taken as a positive control. The absorbance was measured at 517 nm on the microplate reader. Scavenging capacity (%)=[(Acontrol−Ablank)−(Asample−Asample blank)]/(Acontrol−Ablank)×100%
The EC50 value is the concentration required to scavenge 50% of DPPH radicals. Likewise, the EC50 was calculated using Origin 8.0 plotting and cubic polynomial regression.

[11] = Brine shrimp larva lethality test; format: in vivo, Artemia salina; settings: 24 h at 28 °C, read-out: Larvicidal Activity (LC50)
Procedure: Compounds 1‒10 were evaluated for larvicidality using the brine shrimp (Artemia salina) larva lethality test. 0.15 g of frozen eggs of brine shrimp larva (purchased from Aijia Aquarium Co., Zhanjiang, China) were activated at room temperature for 12 h. After activation, eggs were added to 1 L of artificial seawater (3% sea salt), ventilated with air for 420 mL/min, then kept at a brightness at 1000 lux and incubated at 28 °C for 24 h. After incubation, the larvae were induced to the top of the separating funnel by phototaxis, and the dead ones on bottom were discharged. Then, in each well of the 96-well plate, 1 μL of test compounds (in DMSO) with different concentrations and 99 μL of seawater containing 20‒30 live larvae were added. After incubation under light at 28 °C for 24 h, recorded the numbers of dead larvae. Finally, 10 μL of the Lucus reagent were added into each well and the total number of brine shrimp larva in the well were counted. DMSO and Hg(NO3)2 were used as blank control and positive control, respectively. Lethality rate (%)=(lethality of treatment−lethality of blank control)/survival rate of blank control×100%
The brine shrimp larva LC50 value is the concentration required to kill 50% of the larvae. Likewise, the LC50 was calculated using Origin 8.0 plotting and cubic polynomial regression.

[12] = Artemia salina (brine shrimp) larvae, live brine shrimp larvae in 96-well plate, other: immersion in seawater containing the compound

T1 sequence (O42275 24-633): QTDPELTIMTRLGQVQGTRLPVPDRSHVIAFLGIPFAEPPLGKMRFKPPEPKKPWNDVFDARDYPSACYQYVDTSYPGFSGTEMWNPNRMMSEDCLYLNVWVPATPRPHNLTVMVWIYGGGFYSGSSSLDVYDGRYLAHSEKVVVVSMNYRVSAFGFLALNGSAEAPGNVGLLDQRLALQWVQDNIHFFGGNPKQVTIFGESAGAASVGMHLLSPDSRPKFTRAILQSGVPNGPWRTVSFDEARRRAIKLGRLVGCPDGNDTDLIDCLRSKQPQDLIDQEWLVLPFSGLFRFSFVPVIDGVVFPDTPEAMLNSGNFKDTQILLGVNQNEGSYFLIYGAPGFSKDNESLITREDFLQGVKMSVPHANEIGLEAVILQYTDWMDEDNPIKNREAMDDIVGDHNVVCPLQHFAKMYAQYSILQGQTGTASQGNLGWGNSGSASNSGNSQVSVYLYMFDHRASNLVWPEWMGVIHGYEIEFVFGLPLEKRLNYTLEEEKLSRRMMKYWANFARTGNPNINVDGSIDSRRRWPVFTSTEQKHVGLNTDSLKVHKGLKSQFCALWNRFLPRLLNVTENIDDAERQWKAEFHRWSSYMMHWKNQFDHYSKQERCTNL

| Compound | zone of inhibition at 10 µg/disc [1] [mm] | zone of inhibition at 10 µg/disc [2] [mm] | zone of inhibition at 10 µg/disc [3] [mm] | zone of inhibition at 10 µg/disc [4] [mm] | MIC [5] [µM] | MIC [6] [µM] | MIC [7] [µM] | MIC ([8]; Vibrio) [µM] | IC50 [9] [µM] | EC50 [10] [µM] | LC50 at 24 h [11, 12] [µM] | Zone of Inhibition [3] | Zone of Inhibition [4] | LC50 at 24 h ([11]; Artemia salina (brine shrimp) larvae, in vivo, other: compound added to the seawater holding the larvae) [µM] | Zone of Inhibition [1] | MIC ([8]; Vibrio, V. parahemolyticus, microdilution method, read-out: MIC) [µM] | Zone of Inhibition [2] | MIC ([8]; V. parahemolyticus, microdilution method, read-out: MIC) [µM] | LC50 at 24 h ([11]; brine shrimp (Artemia salina), in vivo, brine shrimp larvae) [µM] |
| --- | --- | --- | --- | --- | --- | --- | --- | --- | --- | --- | --- | --- | --- | --- | --- | --- | --- | --- | --- |
| C/C=C(\C)c1cc(O)c(C)c2c1Oc1cc(O)cc(C)c1C(=O)O2 [Compound 6, unguinol] | 8 ± 0.5 | 8.7 ± 2.1 | 7 | 7 | > 102 | 102 (≈ 33.4 µg/mL) | > 102 | > 102 | > 102 | > 102 | > 102 |  |  |  |  |  |  |  |  |
| C/C=C(\C)c1cc(OC(=O)c2c(C)cc(O)cc2O)c(C)c(O)c1C(=O)O [Compound 1, (E)-6-(but-2-en-2-yl)-4-((2,4-dihydroxy-6-methylbenzoyl)oxy)-2-hydroxy-3-methylbenzoic acid] | 8.3 ± 0.6 | 7.7 ± 0.6 | 9.3 ± 0.6 | 12 ± 1 | 12.8 (≈ 4.77 µg/mL) | 102 (≈ 38.1 µg/mL) | 51.2 (≈ 19.1 µg/mL) | > 102 | > 102 | > 102 | > 102 |  |  |  |  |  |  |  |  |
| CC=C(C)c1cc(O)c(C)c2c1Oc1cc(O)c(Cl)c(C)c1C(=O)O2 [Compound 8, 2-chlorounguinol] | 10 | 11.1 ± 0.2 | 8.3 ± 0.6 | 17 | > 102 | 51.2 (≈ 18.5 µg/mL) | 25.6 (≈ 9.24 µg/mL) | > 102 | > 102 | > 102 | 75.9 |  |  |  |  |  |  |  |  |
| CC=C(C)c1c(Cl)c(O)c(C)c2c1Oc1c(Cl)c(O)c(Cl)c(C)c1C(=O)O2 [Compound 3, nornidulin] | 12.1 ± 0.2 | 12.2 ± 0.3 |  |  | > 102 | > 102 |  |  | > 102 | > 102 |  | - | - | 12.8 |  |  |  |  |  |
| CC1(C)S[C@@H]2[C@H](NC(=O)[C@H](N)c3ccccc3)C(=O)N2[C@H]1C(=O)O [Ampicillin, reference compound] |  | 12 ± 1.4 | 9 | 14 |  | 1.6 (≈ 0.559 µg/mL) | 6.4 (≈ 2.24 µg/mL) |  |  |  |  |  |  |  | - | 102 (≈ 35.8 µg/mL) |  |  |  |
| C/C=C(\C)c1cc(O)c(C)c(OC(=O)c2c(/C(C)=C/C)cc(O)c(C)c2O)c1 [Compound 2, agonodepside A] | 6 ± 0.5 |  | 8 |  |  |  |  | > 102 | > 102 | > 102 | > 102 |  | - |  |  |  | - |  |  |
| CC=C(C)c1c(Cl)c(OC)c(C)c2c1Oc1c(Cl)c(O)c(Cl)c(C)c1C(=O)O2 [Compound 4, nidulin] | 9 | 9.5 ± 0.6 |  | 9 | > 102 | > 102 | 102 (≈ 45.4 µg/mL) |  | > 102 | > 102 | 4.5 | - |  |  |  |  |  |  |  |
| CC(=O)N1CCN(c2ccc(OCC3COC(Cn4ccnc4)(c4ccc(Cl)cc4Cl)O3)cc2)CC1 (stereo not shown) [Ketoconazole, reference compound] | 22 |  |  |  | 1.9 (≈ 1.01 µg/mL) |  |  |  |  |  |  | - | - |  |  |  | - |  |  |
| CC(C)[C@H]1NC(=O)[C@H](Cc2ccccc2)NC(=O)[C@@H](C(C)C)NC(=O)[C@@H](C)NC(=O)CCCNC(=O)[C@@H](Cc2c[nH]c3ccccc23)NC(=O)[C@@H](C)NC1=O [Compound 10, unguisin A] (cyclo(F[dV][dA][dW][GABA][dA][dV])) |  |  |  |  |  |  |  |  | > 102 |  |  |  |  |  |  |  |  | >102.4 | > 102 |
| O=C1O[C@H]([C@@H](O)CO)C(O)=C1O [Vitamin C, vitamin C, reference compound] |  |  |  |  |  |  |  |  |  | 31.8 |  |  |  |  |  |  |  |  |  |
